# Reference: patent US20240199649A1 (Biosplice Therapeutics, Inc., priority 2022, published 2024)
# pIC50: −log10 of the molar value.
# Molecular target: recombinant DYRK1A kinase (Homo sapiens (Human), UniProt Q13627)
# Assay: DYRK1A kinase assay (Ser/Thr 18 peptide Z-lyte FRET assay)
# Type: biochemical
# Settings: DYRK1A 0.25 μg/mL, ATP 15 μM, Ser/Thr peptide 18 4 μM; one hour at room temperature; 11-point dose-response, duplicate
# Description: Representative compounds were screened using the assay procedure for DYRK1A kinase activity as described below.
# Each compound was dissolved in DMSO as a 10 mM stock and used to prepare compound source plates.
# This is a non-radioactive assay using fluorescence resonance energy transfer (FRET) between coumarin and fluorescein to detect kinase activity which is represented as a ratio of coumarin emission/fluorescein emission.
# The mixture was allowed to incubate with the representative compounds for one hour at room temperature. All reactions were performed in duplicate. Unphosphorylated (“0% Control”) and phosphorylated (“100% control”) forms of Ser/Thr 18 served as control reactions. Additionally, an 11-point dose-response curve of Staurosporine (1 uM top) was run to serve as a positive compound control.
# After incubation, Development Reagent A was diluted in Development Buffer then added to the reaction and allowed to further incubate for one hour at room temperature.
# Dose-response curves were generated, and inhibitory concentration (IC50) values were calculated using non-linear regression curve fit in the Dotmatics' Studies Software (Bishops Stortford, UK).
structure (smiles),measurement,value
"CNc1nc(N[C@H]2CCN(C)C[C@H]2F)nn2ccc(-c3ccc4nc(C)n(CC(F)F)c4n3)c12 [Compound 204, 5-(3-(2,2-Difluoroethyl)-2-methyl-3H-imidazo[4,5-b]pyridin-5-yl)-N^2-((3R,4S)-3-fluoro-1-methylpiperidin-4-yl)-N^4-methylpyrrolo[2,1-f][1,2,4]triazine-2,4-diamine]",pIC50,9.10
"CNc1nc(N[C@@H]2CCN(C)C[C@@H]2F)nn2ccc(-c3ccc4nc(C)n(CC(F)F)c4n3)c12 [Compound 205, 5-(3-(2,2-Difluoroethyl)-2-methyl-3H-imidazo[4,5-b]pyridin-5-yl)-N^2-((3S,4R)-3-fluoro-1-methylpiperidin-4-yl)-N^4-methylpyrrolo[2,1-f][1,2,4]triazine-2,4-diamine]",pIC50,9.00
"CNc1nc(N[C@@H]2CCN(C)CC2(F)F)nn2ccc(-c3ccc4nc(C)n(CC(F)F)c4n3)c12 [Compound 214, (R)—N^2-(3,3-Difluoro-1-methylpiperidin-4-yl)-5-(3-(2,2-difluoroethyl)-2-methyl-3H-imidazo[4,5-b]pyridin-5-yl)-N^4-methylpyrrolo[2,1-f][1,2,4]triazine-2,4-diamine]",pIC50,8.96
"CNc1nc(N[C@H]2CCN(C)CC2(F)F)nn2ccc(-c3ccc4nc(C)n(CC(F)F)c4n3)c12 [Compound 215, (S)—N^2-(3,3-Difluoro-1-methylpiperidin-4-yl)-5-(3-(2,2-difluoroethyl)-2-methyl-3H-imidazo[4,5-b]pyridin-5-yl)-N^4-methylpyrrolo[2,1-f][1,2,4]triazine-2,4-diamine]",pIC50,8.36
"CNc1nc(N[C@@H]2CCN(C3COC3)CC2(F)F)nn2ccc(-c3ccc4nc(C)n(CC(F)F)c4n3)c12 [Compound 216, (R)—N^2-(3,3-Difluoro-1-(oxetan-3-yl)piperidin-4-yl)-5-(3-(2,2-difluoroethyl)-2-methyl-3H-imidazo[4,5-b]pyridin-5-yl)-N^4-methylpyrrolo[2,1-f][1,2,4]triazine-2,4-diamine]",pIC50,9.10
"CNc1nc(N[C@H]2CCN(C3COC3)CC2(F)F)nn2ccc(-c3ccc4nc(C)n(CC(F)F)c4n3)c12 [Compound 217, (S)—N^2-(3,3-Difluoro-1-(oxetan-3-yl)piperidin-4-yl)-5-(3-(2,2-difluoroethyl)-2-methyl-3H-imidazo[4,5-b]pyridin-5-yl)-N^4-methylpyrrolo[2,1-f][1,2,4]triazine-2,4-diamine]",pIC50,8.77
"CNc1nc(NC2(C)CCOCC2)nn2ccc(-c3ccc4nc(C)n(CC(F)F)c4n3)c12 [Compound 218, 5-(3-(2,2-Difluoroethyl)-2-methyl-3H-imidazo[4,5-b]pyridin-5-yl)-N^4-methyl-N^2-(4-methyltetrahydro-2H-pyran-4-yl)pyrrolo[2,1-f][1,2,4]triazine-2,4-diamine]",pIC50,7.85
"CNc1nc(N[C@@H]2[C@@H]3CNC[C@@H]32)nn2ccc(-c3ccc4nc(C)n(CC(F)F)c4n3)c12 [Compound 219, N^2-((1R,5S,6r)-3-Azabicyclo[3.1.0]hexan-6-yl)-5-(3-(2,2-difluoroethyl)-2-methyl-3H-imidazo[4,5-b]pyridin-5-yl)-N^4-methylpyrrolo[2,1-f][1,2,4]triazine-2,4-diamine]",pIC50,8.17
"CNc1nc(N[C@@H]2[C@@H]3CN(C(C)=O)C[C@@H]32)nn2ccc(-c3ccc4nc(C)n(CC(F)F)c4n3)c12 [Compound 220, 1-((1R,5S,6r)-6-((5-(3-(2,2-Difluoroethyl)-2-methyl-3H-imidazo[4,5-b]pyridin-5-yl)-4-(methylamino)pyrrolo[2,1-f][1,2,4]triazin-2-yl)amino)-3-azabicyclo[3.1.0]hexan-3-yl)ethan-1-one]",pIC50,8.01
"CNc1nc(N[C@H]2[C@@H]3COC[C@@H]32)nn2ccc(-c3ccc4nc(C)n(CC(F)F)c4n3)c12 [Compound 221, N^2-((1R,5S,6r)-3-Oxabicyclo[3.1.0]hexan-6-yl)-5-(3-(2,2-difluoroethyl)-2-methyl-3H-imidazo[4,5-b]pyridin-5-yl)-N^4-methylpyrrolo[2,1-f][1,2,4]triazine-2,4-diamine]",pIC50,8.80
"CNc1nc(N[C@@H]2[C@@H]3COC[C@@H]32)nn2ccc(-c3ccc4nc(C)n(CC(F)F)c4n3)c12 [Compound 222, N^2-((1R,5S,6s)-3-Oxabicyclo[3.1.0]hexan-6-yl)-5-(3-(2,2-difluoroethyl)-2-methyl-3H-imidazo[4,5-b]pyridin-5-yl)-N^4-methylpyrrolo[2,1-f][1,2,4]triazine-2,4-diamine]",pIC50,8.39
"CNc1nc(NC2CC3(CCN(C(C)=O)CC3)C2)nn2ccc(-c3ccc4nc(C)n(CC(F)F)c4n3)c12 [Compound 223, 1-(2-((5-(3-(2,2-Difluoroethyl)-2-methyl-3H-imidazo[4,5-b]pyridin-5-yl)-4-(methylamino)pyrrolo[2,1-f][1,2,4]triazin-2-yl)amino)-7-azaspiro[3.5]nonan-7-yl)ethan-1-one]",pIC50,8.96
"CNc1nc(NC2CCC3(CC2)CN(C(C)=O)C3)nn2ccc(-c3ccc4nc(C)n(CC(F)F)c4n3)c12 [Compound 224, 1-(7-((5-(3-(2,2-Difluoroethyl)-2-methyl-3H-imidazo[4,5-b]pyridin-5-yl)-4-(methylamino)pyrrolo[2,1-f][1,2,4]triazin-2-yl)amino)-2-azaspiro[3.5]nonan-2-yl)ethan-1-one]",pIC50,9.70
"CNc1nc(NC2CCC3(CC2)COC3)nn2ccc(-c3ccc4nc(C)n(CC(F)F)c4n3)c12 [Compound 225, 5-(3-(2,2-Difluoroethyl)-2-methyl-3H-imidazo[4,5-b]pyridin-5-yl)-N^4-methyl-N^2-(2-oxaspiro[3.5]nonan-7-yl)pyrrolo[2,1-f][1,2,4]triazine-2,4-diamine]",pIC50,9.10
"CNc1nc(N[C@H]2CC[C@@]3(CCO3)CC2)nn2ccc(-c3ccc4nc(C)n(CC(F)F)c4n3)c12 [Compound 226, 5-(3-(2,2-Difluoroethyl)-2-methyl-3H-imidazo[4,5-b]pyridin-5-yl)-N^4-methyl-N^2-((4r,7r)-1-oxaspiro[3.5]nonan-7-yl)pyrrolo[2,1-f][1,2,4]triazine-2,4-diamine]",pIC50,8.70
"CNc1nc(N[C@H]2CC[C@]3(CCO3)CC2)nn2ccc(-c3ccc4nc(C)n(CC(F)F)c4n3)c12 [Compound 227, 5-(3-(2,2-Difluoroethyl)-2-methyl-3H-imidazo[4,5-b]pyridin-5-yl)-N^4-methyl-N^2-((4s,7s)-1-oxaspiro[3.5]nonan-7-yl)pyrrolo[2,1-f][1,2,4]triazine-2,4-diamine]",pIC50,8.48
"CNc1nc(NC2C3CCC2CN(C)C3)nn2ccc(-c3ccc4nc(C)n(CC(F)F)c4n3)c12 (stereo not drawn) [Compound 228, 5-(3-(2,2-Difluoroethyl)-2-methyl-3H-imidazo[4,5-b]pyridin-5-yl)-N^4-methyl-N^2-(3-methyl-3-azabicyclo[3.2.1]octan-8-yl)pyrrolo[2,1-f][1,2,4]triazine-2,4-diamine]",pIC50,8.55
"CNc1nc(N[C@@H]2CCNCC2(F)F)nn2ccc(-c3ccn4nccc4n3)c12 [Compound 339, (R)—N^2-(3,3-Difluoropiperidin-4-yl)-N^4-methyl-5-(pyrazolo[1,5-a]pyrimidin-5-yl)pyrrolo[2,1-f][1,2,4]triazine-2,4-diamine]",pIC50,8.66
"CNc1nc(N[C@@H]2CCN(C3COC3)CC2(F)F)nn2ccc(-c3ccc4ncn(CC(F)F)c4n3)c12 [Compound 351, (R)—N^2-(3,3-Difluoro-1-(oxetan-3-yl)piperidin-4-yl)-5-(3-(2,2-difluoroethyl)-3H-imidazo[4,5-b]pyridin-5-yl)-N^4-methylpyrrolo[2,1-f][1,2,4]triazine-2,4-diamine]",pIC50,6.44
"CNc1nc(N[C@H]2C[C@H](C(C)(C)O)C2)nn2ccc(-c3ccc4nc(C)n(CC(F)F)c4n3)c12 [Compound 355, 2-(trans-3-((5-(3-(2,2-Difluoroethyl)-2-methyl-3H-imidazo[4,5-b]pyridin-5-yl)-4-(methylamino)pyrrolo[2,1-f][1,2,4]triazin-2-yl)amino)cyclobutyl)propan-2-ol]",pIC50,8.38
"CNc1nc(N[C@H]2CN(C)CC2(F)F)nn2ccc(-c3ccc4nc(C)n(CC(F)F)c4n3)c12 [Compound 363, (S)—N^2-(4,4-Difluoro-1-methylpyrrolidin-3-yl)-5-(3-(2,2-difluoroethyl)-2-methyl-3H-imidazo[4,5-b]pyridin-5-yl)-N^4-methylpyrrolo[2,1-f][1,2,4]triazine-2,4-diamine]",pIC50,8.68
"CNc1nc(N[C@@H]2CN(C)CC2(F)F)nn2ccc(-c3ccc4nc(C)n(CC(F)F)c4n3)c12 [Compound 364, (R)—N^2-(4,4-Difluoro-1-methylpyrrolidin-3-yl)-5-(3-(2,2-difluoroethyl)-2-methyl-3H-imidazo[4,5-b]pyridin-5-yl)-N^4-methylpyrrolo[2,1-f][1,2,4]triazine-2,4-diamine]",pIC50,9.22
"CCN1C[C@H](Nc2nc(NC)c3c(-c4ccc5nc(C)n(CC(F)F)c5n4)ccn3n2)C(F)(F)C1 [Compound 365, (S)-5-(3-(2,2-Difluoroethyl)-2-methyl-3H-imidazo[4,5-b]pyridin-5-yl)-N^2-(1-ethyl-4,4-difluoropyrrolidin-3-yl)-N^4-methylpyrrolo[2,1-f][1,2,4]triazine-2,4-diamine]",pIC50,8.20
"CCN1C[C@@H](Nc2nc(NC)c3c(-c4ccc5nc(C)n(CC(F)F)c5n4)ccn3n2)C(F)(F)C1 [Compound 366, (R)-5-(3-(2,2-Difluoroethyl)-2-methyl-3H-imidazo[4,5-b]pyridin-5-yl)-N^2-(1-ethyl-4,4-difluoropyrrolidin-3-yl)-N^4-methylpyrrolo[2,1-f][1,2,4]triazine-2,4-diamine]",pIC50,8.85
